Entries after “also recorded” stand apart in the source; their conditions may differ.
Key:
Assay type in all cases: cell-based
[1] = system: Akt phosphorylation at S473 site; assay: ELISA (double antibody sandwich), Akt phosphorylation in IGF-1 stimulated A549 cells; details: for Inhibitory rate % (Akt phosphorylation): drug 1 h, then IGF-1 10 min, p-Akt (S473) ELISA; for Effect on Akt phosphorylation compared with positive control: ELISA, in words
Experimental: Establishment of ELISA screening method using a double antibody sandwich method: A549 cells (a lung cancer cell line, purchased from Chinese Academy of Sciences, Shanghai Institutes for Biological Sciences Cell Resource Center) were inoculated at certain densities in 12-well plates, and incubated at 37° C. in a carbon dioxide incubator overnight to let cells attach the plate wells. Meanwhile the Akt antibody was inoculated at a specific concentration in a highly-adsorbed microplate, and placed in a refrigerator at 4° C. The 12-well plates were washed with sterile PBS three times, then into which serum-free F12 was added, and incubated for 24 hours in a incubator. Then MK2206, Triciribine and FD series drugs were added into 12-well plates and worked for one hour, followed by adding 100 ng of IGF-1 and being stimulated for 10 minutes. The 12-well plates were washed with pre-cooled PBS three times, and 100 μl of RIPA lysis buffer was added into each well to lyse cells on ice for 20 minutes. The lysates were collected and added to the appropriate microplate (purchased from Santa Cruz biotechnology), which were shaken on ice. A p-Akt (S473) antibody (purchased Cell Signaling Technology, Inc.) was added into microplates. After shaking for a period of time, an anti-rabbit antibody (purchased from Cell Signaling Technology, Inc.) was added. The reaction was terminated with 2M sulfuric acid after TMB developed. Absorbance at 450 nm was measured on a microplate reader, and the inhibitory rate=[…], among which ODsample refers to the absorbance of the sample well, ODIGF refers the absorbance of the well with IGF only, OD—IGF refers the absorbance of the well withoutIGF.

PC-3 = assay: Sulforhodamine B proliferation; details: SRB; for inhibition at 10 µM: Homo sapiens, PC-3, 72 h, read-out: Inhibitory rate % (PC-3); for inhibition at 10 µM / Inhibitory rate % (PC-3): 72 h
Experimental: (§1) At a certain density cells were seeded in 96-well plates, and adhered overnight. The medium was discarded after incubating cells with compounds to be tested for 72 h, then 100μL/well trichloroacetic acid (TCA) was added to fix cells at 4° C. for 2h. After that the fixing solution was discarded. Cells were gently washed 5 times with distilled water, dried at room temperature. Cells were stained with 4 mg/mL SRB staining solution (100 μL/well) at room temperature for 15min. The staining solution was discarded, and cells were washed five times with 1% acetic acid (HAC) and dried at room temperature. To the plate tris base buffer (10 mM) was added at 150 μL/well and placed at room temperature for 15min. The OD values were measured at 540 nm wavelength in a microplate reader. Inhibitory rate (%)=(OD valuecontrol wells−OD valuedrugs treated wells)/OD valuecontrol wells×100%.
(§2) The results were shown in Table 2, the working concentrations of MK2206 and compounds of FD series were 10 μM. As shown in this Table, PC-3 is a prostate cancer cell line purchased from Cell Resource Center of Shanghai Institutes for Biological Sciences, Chinese Academy of Sciences, A549 is a lung cancer cell line purchased from Cell Resource Center of Shanghai Institutes for Biological Sciences, Chinese Academy of Sciences, and SGC-7901 is a gastric cancer cell line purchased from Cell Resource Center of Shanghai Institutes for Biological Sciences, Chinese Academy of Sciences.

SGC-7901 = assay: Sulforhodamine B proliferation; details: SRB; for Inhibitory rate % (SGC-7901): 10 μM, 72 h; for inhibition at 10 µM: Homo sapiens, SGC-7901, 72 h, read-out: Inhibitory rate % (SGC-7901)
Experimental: as §1, §2

A549 = assay: Sulforhodamine B proliferation; details: SRB; for Inhibitory rate % (A549): 10 μM, 72 h; for inhibition at 10 µM: Homo sapiens, A549, 72 h, read-out: Inhibitory rate % (A549)
Experimental: as §1, §2

p-Akt (S473) = assay: Western blot, p-Akt (S473) in IGF stimulated A549 cells; details: compound 1 h, IGF 10 min, FIG. 1, in words
Experimental: A549 cells were seeded at a density of 2×10^5 cells/well into 12-well plates, and adhered overnight. Then the medium was discarded and the plates were washed three times with normal saline. After that, fresh serum-free medium was added to starve cells for 24 hours, compounds to be tested were added to work for 1 h, then IGF-I was added to stimulated for 10 min, followed byadding a lysis buffer on ice to lyse for half an hour. The cell lysates were collected and centrifuged at 20000×g at 4° C. for 10min, then the supernatant was collected. Protein was quantified by MicroBCA protein quantification Assay kit, and the protein concentration was normalized. The supernatant was mixed with the 4×SDS sample buffer [200 mM Tris.Cl (pH 6.8), 400 mM DTT, 8% SDS, 0.4% bromophenol blue, 40% glycerol] and boiled for 15 min. After cooling at room temperature, aliquots were loaded on polyacrylamide gel, and electrophoresed in Tris-glycine electrophoretic buffer (25 mM Tris, 250 mM glycine, 0.1% SDS) at 80-120 V for about 2 h. Proteins were transferred from the gel to a nitrocellulose membrane by a semi-dry method. Transferring conditions: transfer buffer (39 mM glycine, 48 mM Tris base, 0.037% SDS, 20% methanol); transfer current 25 mA; transfer time 2 h. After transfer, Ponceau S staining was used to determine the transfer efficiency and the positions of protein bands on the nitrocellulose membranes. After labeling the membrane was blocked with a blocking solution containing 5% nonfat-dried milk [5% nonfat-dried milk, 20 mM Tris-HCl (pH 7.2-7.4), 150 mM NaCl, 0.1% (v/v) Tween 20] on a shaker at room temperature for 2 h. To the system were added specific primary antibodies and incubated overnight at 4° C. Then the membrane was washed with PBST solution [20 mM Tris-HCl (pH 7.2-7.4), 150 mM NaCl, 0.1% (v/v) Tween 20] at room temperature three times, 15 min/time. To the system were added Horseradish peroxidase-labeled secondary antibodies and incubated at room temperature on a shaker with gentle shaking for 2 h. After washing with PBST solution three times, the system was exposed, developed and fixed after SuperSignal West Dura Chemiluminescent Substrate (Pierce Inc, Rochford, IL) was used for color. The results were shown in FIG. 1, in which there were 12 lanes the band shade and size of which indicated the corresponding protein concentration levels. […] MK2206 was an Akt phosphorylation inhibitor developed by Merck, and was currently in phase II clinical trial, showing good therapeutic effects in a variety of tumors.

In the case of `C=C(C)n1c(=O)n(C(C)=O)c2ccc([N+](=O)[O-])cc21` [FD1], the “Inhibitory rate % (Akt phosphorylation)” value [1] is reported as 85%, the “Inhibiting effect on PC-3 tumor cells (PTEN deficient) proliferation relative to other lines” value (PC-3; 10 μM, in words) is reported as “more significant” and the inhibition at 10 µM (PC-3) is reported as 51.1%. The “Inhibitory rate % (SGC-7901)” value (SGC-7901) was 56.4%, the “Inhibitory rate % (A549)” value (A549) was 9.6% and the “Effect on Akt phosphorylation level (p-Akt S473 band)” value (p-Akt (S473)) was “significantly reduce the Akt phosphorylation level; also recorded: comparable effects to MK2206”.
In the case of `C=C(C)n1c(=O)n(C(C)=O)c2ccc([N+](=O)[O-])cc21` [FD2], the “Effect on Akt phosphorylation compared with positive control” value (shortened to “Effect … compared with positive control”) [1] is reported as “comparable effects with that of Triciribine”, the “Inhibitory rate % (Akt phosphorylation)” value [1] is reported as 51% and the “Inhibitory rate % (PC-3)” value (PC-3; 10 μM) is reported as 32.4%. The “Inhibitory rate % (SGC-7901)” value (SGC-7901) was 23.4% and the “Inhibitory rate % (A549)” value (A549) was 3.4%.
For `C=C(C)n1c(=O)n(C(=O)CC)c2cc([N+](=O)[O-])ccc21` [FD4], the “Effect … compared with positive control” value [1] was “comparable effects with that of Triciribine”, the “Inhibitory rate % (Akt phosphorylation)” value [1] was 50% and the inhibition at 10 µM (PC-3) was 33.9%. The inhibition at 10 µM (SGC-7901) was 22% and the inhibition at 10 µM (A549) was 7.2%.
In the case of `C=CC(=O)n1c(=O)n(C(=C)C)c2cc([N+](=O)[O-])ccc21` [FD5], the “Inhibitory rate % (Akt phosphorylation)” value [1] is reported as 20%, the inhibition at 10 µM (PC-3) is reported as 29.1% and the inhibition at 10 µM (SGC-7901) is reported as 7.3%. The inhibition at 10 µM (A549) was 22.3%.
For `C=CC(=O)n1c(=O)n(C(=C)C)c2ccc([N+](=O)[O-])cc21` [FD6], the “Inhibitory rate % (Akt phosphorylation)” value [1] was 10%, the inhibition at 10 µM (PC-3) was 24.2% and the inhibition at 10 µM (SGC-7901) was 30.4%. For the same compound, the inhibition at 10 µM (A549) was 18.2%.
With `C=C(C)C(=O)n1c(=O)n(C(=C)C)c2cc([N+](=O)[O-])ccc21` [FD7] the “Inhibitory rate % (Akt phosphorylation)” value [1] was 6%, the inhibition at 10 µM (PC-3) was 22.6% and the inhibition at 10 µM (SGC-7901) was 34.1%. It also gave an inhibition at 10 µM (A549) of 34.1%.
With `C=C(C)C(=O)n1c(=O)n(C(=C)C)c2ccc([N+](=O)[O-])cc21` [FD8] the “Inhibitory rate % (Akt phosphorylation)” value [1] was 3%, the inhibition at 10 µM (PC-3) was 13.4% and the inhibition at 10 µM (SGC-7901) was 28%. The inhibition at 10 µM (A549) was 2.8%.
For `C=C(C)n1c(=O)n(C(=O)CCC)c2ccc([N+](=O)[O-])cc21` [FD9], the “Inhibitory rate % (Akt phosphorylation)” value [1] was 22%, the inhibition at 10 µM (PC-3) was 26.1% and the inhibition at 10 µM (SGC-7901) was 26.4%. For the same compound, the “Inhibitory rate % (A549)” value (A549) was 1.1%.
For `C=C(C)n1c(=O)n(C(=O)CCC)c2cc([N+](=O)[O-])ccc21` [FD10], the “Inhibitory rate % (Akt phosphorylation)” value [1] was 17%, the inhibition at 10 µM (PC-3) was 13.8% and the inhibition at 10 µM (SGC-7901) was 28.1%. It also gave an inhibition at 10 µM (A549) of 5.3%.
For `C=C(C)n1c(=O)n(C(=O)CCC)c2ccc([N+](=O)[O-])cc21` [FD11], the “Inhibitory rate % (Akt phosphorylation)” value [1] was 11%, the “Inhibitory rate % (PC-3)” value (PC-3; 10 μM) was 19.2% and the “Inhibitory rate % (SGC-7901)” value (SGC-7901) was 13.6%. For the same compound, the “Inhibitory rate % (A549)” value (A549) was 2.4%.
`C=C(C)n1c(=O)n(C(=O)CCC)c2cc([N+](=O)[O-])ccc21` [FD12] was tested, and the “Effect … compared with positive control” value [1] was “comparable effects with that of Triciribine”, the “Inhibitory rate % (Akt phosphorylation)” value [1] was 48% and the “Inhibitory rate % (PC-3)” value (PC-3; 10 μM) was 8.2%. For the same compound, the “Inhibitory rate % (SGC-7901)” value (SGC-7901) was 19.8% and the “Inhibitory rate % (A549)” value (A549) was 3.8%.
With `C=C(C)n1c(=O)n(C(=O)CCCCC)c2ccc([N+](=O)[O-])cc21` [FD13] the “Effect … compared with positive control” value [1] was “comparable effects with that of Triciribine” and the “Inhibitory rate % (Akt phosphorylation)” value [1] was 56%.
In the case of `C=C(C)n1c(=O)n(C(=O)CCCCC)c2cc([N+](=O)[O-])ccc21` [FD14], the “Inhibitory rate % (Akt phosphorylation)” value [1] is reported as 34%, the inhibition at 10 µM (PC-3) is reported as 9% and the inhibition at 10 µM (SGC-7901) is reported as 25.5%. It also gave an inhibition at 10 µM (A549) of 13.1%.
In the case of `C=C(C)n1c(=O)n(C(=O)CCCCCCC)c2ccc([N+](=O)[O-])cc21` [FD15], the “Inhibitory rate % (Akt phosphorylation)” value [1] is reported as 42%, the inhibition at 10 µM (PC-3) is reported as 4.6% and the inhibition at 10 µM (SGC-7901) is reported as 20.1%. For the same compound, the inhibition at 10 µM (A549) was 33.3%.
With `C=C(C)n1c(=O)n(C(=O)CCCCCCC)c2cc([N+](=O)[O-])ccc21` [FD16] the “Inhibitory rate % (Akt phosphorylation)” value [1] was 64%, the inhibition at 10 µM (PC-3) was 7.1% and the inhibition at 10 µM (SGC-7901) was 12.4%. The inhibition at 10 µM (A549) was 23.2%.
With `C=C(C)n1c(=O)n(C(=O)c2ccccc2C)c2ccc([N+](=O)[O-])cc21` [FD17] the “Inhibitory rate % (Akt phosphorylation)” value [1] was 38%, the inhibition at 10 µM (PC-3) was 20% and the inhibition at 10 µM (SGC-7901) was 40.5%. It also gave an inhibition at 10 µM (A549) of 31.4%.
With `C=C(C)n1c(=O)n(C(=O)c2ccccc2C)c2cc([N+](=O)[O-])ccc21` [FD18] the “Inhibitory rate % (Akt phosphorylation)” value [1] was 42%, the inhibition at 10 µM (PC-3) was 32.1% and the inhibition at 10 µM (SGC-7901) was 44.2%. The inhibition at 10 µM (A549) was 11.5%.
`NC1(c2ccc(-c3nc4ccn5c(=O)[nH]nc5c4cc3-c3ccccc3)cc2)CCC1` [MK2206, reference compound] was tested, and the “Inhibitory rate % (Akt phosphorylation)” value [1] was 92%, the “Inhibitory rate % (PC-3)” value (PC-3; 10 μM) was 1.2% and the “Inhibitory rate % (SGC-7901)” value (SGC-7901) was 24.3%. For the same compound, the “Inhibitory rate % (A549)” value (A549) was 61.0% and the “Effect on Akt phosphorylation level (p-Akt S473 band)” value (p-Akt (S473)) was “significantly reduce the Akt phosphorylation level; also recorded: significantly inhibited the increase of Akt phosphorylation level stimulated by IGF”.
